Reference: patent EP0471841A1, “SULFONAMIDE DERIVATIVE AND PHARMACEUTICAL COMPOSITION CONTAINING THE SAME” (Asahi Kasei Kogyo Kabushiki Kaisha, priority 1990, dated 1991)
Where a name gives a salt, the structure may show the parent alone. Read-outs that look alike come from different tables or passages of the source.

Test system: tracheal specimens excised from guinea pigs
Experiment: Inhibitory effect on KCl-induced contraction of tracheal specimens excised from guinea pigs (Magnus tube)
Format: cell-based
Conditions: dose required for relaxing KCl-induced contraction to 50 %, final KCl concentration: 20 mM, 37 °C, compounds other than acid addition salts used as hydrochloride, 3 specimens per group, read-out: ED₅₀ Effect on KCl-induced contraction
Experimental: The bronchial smooth muscle-relaxing action of the sulfonamide derivative of the present invention was evaluated by the effect on suppression of KCl-induced contraction and PGF2α-induced contraction of bronchial specimens excised from guinea pigs.
According to a method in which tracheal specimens excised from guinea pigs were used (Takagi and Ozawa, "Yakubutsugaku Jikken (Experiments in Pharmacology)", pp.100-102, 1960, published by Nanzando Japan; and Fujiwara and Shibata, "Yakurigaku Kiso Jikenho (Methods of Fundamental Experiments in Pharmacology)" pp.131-134, 1982, published by Kyourin, Japan), relaxing effect of sulfonamide derivatives of the present invention on bronchial smooth muscle was examined. Of compounds (1) to (69) shown herein, compounds other than acid addition salts were individually used in the form of a hydrochloride which was obtained by the same method as described in Example 61.
From male guinea pigs weighing 350 to 500 g (Hartley strain, Kuroda Junkei Dobutsu), tracheas were excised and each of the excised tracheal specimens was hung in 20 ml of a Magnus tube filled with Krebs-Henseleit solution under isotonic conditions and the solution temperature was kept at 37 °C. An aqueous KCl solution was dropwise added into the Magnus tube (final KCl concentration: 20 mM) to contract the tracheal specimen. After the KCl-induced contraction became stable, each of the compounds of the present invention was dissolved in distilled water or physiological saline, and the compound solution was cumulatively added into the Magnus tube. The relaxing effect of each of the compounds of the present invention on contracted tracheal specimens was evaluated and a dose-response curve was obtained.
A dose required for relaxing KCl-induced contraction to 50 %, i.e., ED₅₀ was calculated from the dose-response curve. For comparison, the same method as described above was repeated except that aminophylline was used, to thereby determine an ED₅₀. The number of tracheal specimens in each group was 3.

EC50 (Cavia porcellus) [µM]	Molecule	EC50 [µM]
48	O=S(=O)(NCCN1CCNCC1)c1ccc(Cl)c2ncccc12 [(37), 1-(8-chloro-5-quinolinesulfonylaminoethyl) piperazine]	
30	O=S(=O)(NCCNCCc1ccc2c(c1)OCO2)c1ccc(Cl)c2ncccc12 [(9), N-[2-(3,4-methylenedioxyphenethylamino)ethyl]-8-chloro-5-quinolinesulfonamide]	
7.4	O=S(=O)(NCCNCCc1ccc2c(c1)OCO2)c1cccc2cnccc12 [(1), N-[2-(3,4-methylenedioxyphenethylamino)ethyl]-5-isoquinolinesulfonamide]	
24	O=S(=O)(NCCN1CCNCC1)c1cccc2cnccc12 [(28), 1-(5-isoquinolinesulfonylaminoethyl)piperazine]	
120	O=S(=O)(NCCNCc1cccc(Cl)c1)c1ccc(Cl)c2ncccc12 [(10), N-[2-(3-chlorobenzylamino)ethyl]-8-chloro-5-quinolinesulfonamide]	
105	CCOc1ccc(S(=O)(=O)NCCNCc2ccccc2)c2cccnc12 [(25), N-(2-benzylaminoethyl)-8-ethoxy-5-quinolinesulfonamide]	
90	O=S(=O)(c1cccc2ncccc12)N1CCNCC1 [(59), 1-(5-quinolinesulfonyl)piperazine]	
120	CCOc1ccc(S(=O)(=O)NCCN2CCN(CCc3ccc(OC)c(OC)c3)CC2)c2cccnc12 [(53), 1-(8-ethoxy-5-quinolinesulfonylaminoethyl)-4-(3,4-dimethoxyphenethyl)piperazine]	
31	CCOc1ccc(S(=O)(=O)NCCNCc2ccc3c(c2)OCO3)c2cccnc12 [(24), N-[2-(3,4-methylenedioxybenzylamino)ethyl]-8-ethoxy-5-quinolinesulfonamide]	
110	COc1ccc(CCNC(C)CNS(=O)(=O)c2ccc(Cl)c3ncccc23)cc1OC (stereo not shown) [(60), N-[2-(3,4-dimethoxyphenethylamino)-2-methylethyl]-8-chloro-5-quinolinesulfonamide]	
	1-(1-hydroxy-5-isoquinolinesulfonylaminoethyl) homopiperazine hydrochloride [(33)]	24
79	O=S(=O)(c1cccc2ncccc12)N1CCCNCC1 [(58), 1-(5-quinolinesulfonyl)homopiperazine]	
78	O=S(=O)(NCCN1CCN(Cc2ccc(Cl)cc2)CC1)c1ccc(Cl)c2ncccc12 [(41), 1-(8-chloro-5-quinolinesulfonylaminoethyl)-4-(4-chlorobenzyl)piperazine]	
71	CCOc1ccc(S(=O)(=O)NCCNCCc2ccc(Cl)cc2)c2cccnc12 [(17), N-[2-(4-chlorophenethylamino)ethyl]-8-ethoxy-5-quinolinesulfonamide]	
60	CCOc1ccc(S(=O)(=O)NCCN2CCNCC2)c2cccnc12 [(47), 1-(8-ethoxy-5-quinolinesulfonylaminoethyl) piperazine]	
51	CCOc1ccc(S(=O)(=O)NCCN2CCCNCC2)c2cccnc12 [Compound (46), 1-(8-ethoxy-5-quinolinesulfonylaminoethyl) homopiperazine]	
97	O=S(=O)(NCCNCc1ccccc1)c1ccc(Cl)c2ncccc12 [(14)]	
160	COc1ccc(CNCCNS(=O)(=O)c2ccc(Cl)c3ncccc23)cc1OC [(12), N-[2-(3,4-dimethoxybenzylamino)ethyl]-8-chloro-5-quinolinesulfonamide]	
70	O=S(=O)(NCCNCCc1ccc(C(F)(F)F)cc1)c1ccc(Cl)c2ncccc12 [(7), N-[2-(4-trifluoromethylphenethylamino)ethyl]-8-chloro-5-quinolinesulfonamide]	
128	CCOc1ccc(S(=O)(=O)NCCNCc2cccc(Cl)c2)c2cccnc12 [(21), N-[2-(3-chlorobenzylamino)ethyl]-8-ethoxy-5-quinolinesulfonamide]	
31	O=S(=O)(NCCN1CCN(Cc2ccc3c(c2)OCO3)CC1)c1ccc(Cl)c2ncccc12 [(39), 1-(8-chloro-5-quinolinesulfonylaminoethyl)-4-(3,4-methylenedioxybenzyl)piperazine]	
46	CCOc1ccc(S(=O)(=O)NCCN2CCN(Cc3ccc4c(c3)OCO4)CC2)c2cccnc12 [(49), 1-(8-ethoxy-5-quinolinesulfonylaminoethyl)-4-(3,4-methylenedioxybenzyl)piperazine]	

EC50 (Cavia porcellus) [µM]	Molecule	EC50 [µM]
163	CCOc1ccc(S(=O)(=O)NCCNCc2ccc(OC)c(OC)c2)c2cccnc12 [(23), N-[2-(3,4-dimethoxybenzylamino)ethyl]-8-ethoxy-5-quinolinesulfonamide]	
75	CCOc1ccc(S(=O)(=O)NCCNCCc2ccc(C(F)(F)F)cc2)c2cccnc12 [(18), N-[2-(4-trifluoromethylphenethylamino)ethyl]-8-ethoxy-5-quinolinesulfonamide]	
125	CCOc1ccc(S(=O)(=O)NCCNCCc2ccc(OC)c(OC)c2)c2cccnc12 [(19), N-[2-(3,4-dimethoxyphenethylamino)ethyl]-8-ethoxy-5-quinolinesulfonamide]	
35	CCOc1ccc(S(=O)(=O)NCCNCCc2ccc(OC)cc2)c2cccnc12 [(16), N-[2-(4-methoxyphenethylamino)ethyl]-8-ethoxy-5-quinolinesulfonamide]	
68	O=S(=O)(NCCN1CCCN(Cc2ccc(Cl)cc2)CC1)c1ccc(Cl)c2ncccc12 [(40), 1-(8-chloro-5-quinolinesulfonylaminoethyl)-4-(4-chlorobenzyl)homopiperazine]	
110	O=S(=O)(NCCNCCc1ccccc1)c1ccc(Cl)c2ncccc12 [(15)]	
120	COc1ccc(CCNCCNS(=O)(=O)c2ccc(Cl)c3ncccc23)cc1OC [(8), N-[2-(3,4-dimethoxyphenethylamino)ethyl]-8-chloro-5-quinolinesulfonamide]	
19	O=S(=O)(NCCN1CCN(Cc2ccc3c(c2)OCO3)CC1)c1cccc2c(O)nccc12 [(34), 1-(1-hydroxy-5-isoquinolinesulfonylaminoethyl)-4-(3,4-methylenedioxybenzyl)piperazine hydrochloride]	
106	COc1ccc(CCN2CCN(CCNS(=O)(=O)c3ccc(Cl)c4ncccc34)CC2)cc1OC [(43), 1-(8-chloro-5-quinolinesulfonylaminoethyl)-4-(3,4-dimethoxyphenethyl)piperazine]	
95	COc1ccc(CCN2CCCN(CCNS(=O)(=O)c3ccc(Cl)c4ncccc34)CC2)cc1OC [(42), 1-(8-chloro-5-quinolinesulfonylaminoethyl)-4-(3,4-dimethoxyphenethyl)homopiperazine]	
131	CCOc1ccc(S(=O)(=O)NCCNCc2ccc(OC)cc2)c2cccnc12 [(22), N-[2-(4-methoxybenzylamino)ethyl]-8-ethoxy-5-quinolinesulfonamide]	
28	O=S(=O)(NCCNCc1ccc2c(c1)OCO2)c1ccc(Cl)c2ncccc12 [(13), N-[2-(3,4-methylenedioxybenzylamino)ethyl]-8-chloro-5-quinolinesulfonamide]	
81	CCOc1ccc(S(=O)(=O)NCCN2CCCN(Cc3ccc(Cl)cc3)CC2)c2cccnc12 [(50), 1-(8-ethoxy-5-quinolinesulfonylaminoethyl)-4-(4-chlorobenzyl)homopiperazine]	
38	CCOc1ccc(S(=O)(=O)NCCNCCc2ccc3c(c2)OCO3)c2cccnc12 [(20), N-[2-(3,4-methylenedioxyphenethylamino)ethyl]-8-ethoxy-5-quinolinesulfonamide]	
49	O=S(=O)(c1ccc(Cl)c2ncccc12)N1CCNCC1 [(56), 1-(8-chloro-5-quinolinesulfonyl)piperazine]	
125	COc1ccc(CNCCNS(=O)(=O)c2ccc(Cl)c3ncccc23)cc1 [(11), N-[2-(4-methoxybenzylamino)ethyl]-8-chloro-5-quinolinesulfonamide]	
112	CCOc1ccc(S(=O)(=O)NCCNCCc2ccccc2)c2cccnc12 [(26), N-(2-phenethylaminoethyl)-8-ethoxy-5-quinolinesulfonamide]	
15	O=S(=O)(NCCNCCc1ccc2c(c1)OCO2)c1cccc2c(O)nccc12 [(2), N-[2-(3,4-methylenedioxyphenethylamino)ethyl]-1-hydroxy-5-isoquinolinesulfonamide hydrochloride]	
28	COc1ccc(CCNCCNS(=O)(=O)c2ccc(Cl)c3ncccc23)cc1 [(5), N-[2-(4-methoxyphenethylamino)ethyl]-8-chloro-5-quinolinesulfonamide]	
22	O=S(=O)(NCCN1CCCNCC1)c1cccc2cnccc12 [(29), 1-(5-isoquinolinesulfonylaminoethyl)homopiperazine]	
60	O=S(=O)(NCCNCCc1ccc(Cl)cc1)c1ccc(Cl)c2ncccc12 [(6), N-[2-(4-chlorophenethylamino)ethyl]-8-chloro-5-quinolinesulfonamide]	
